In patent publication US20250144067A1, “PERSONALIZED STARVATION THERAPY FOR CANCER” (Faeth Therapeutics, Inc., priority 2021, published 2025):
Structures can show the parent of a compound that is named as a salt. Where two headings read alike, the source gives them in different places.

Legend:
[1] = test system: NCI-H292 lung cancer cells; test: FDA drug screening, complete media vs cholesterol-free media without statin (TABLE 1); assay type: cell-based, human
[2] = test system: NCI-H292 lung cancer cells; test: FDA drug screening, complete media vs cholesterol-free media with simvastatin (TABLE 2); assay type: cell-based, human
[3] = NCI-H292 cells, cholesterol-free media without statin, FDA drug library screen
[4] = NCI-H292 cells, complete media, FDA drug library screen
[5] = complete vs cholesterol-free media, […]
[6] = NCI-H292 cells, FDA drug library screen, cholesterol-free media with simvastatin 0.04 μM
[7] = NCI-H292 cells, FDA drug library screen, complete media
[8] = complete media vs cholesterol-free media + simvastatin (0.04 μM), […]
[9] = Complete minus Cholesterol-free, >0 enhanced anti-cancer activity, about 0 neutral, <0 antagonist
[10] = NCI-H292 cells, cholesterol-free media without statin
[11] = NCI-H292 cells, cholesterol-free media with simvastatin 0.04 μM, FDA drug library screen (TABLE 2)
[12] = NCI-H292 cells, complete media, FDA drug library screen (TABLE 2)
[13] = complete media minus cholesterol-free media + simvastatin (0.04 μM), >0 enhanced anti-cancer activity, about 0 neutral, <0 antagonist
[14] = Complete minus Cholesterol-free, greater than 0 enhanced anti-cancer activity, about 0 neutral, below 0 antagonists
[15] = NCI-H292 cells in complete media
[16] = complete media minus cholesterol-free media + simvastatin, >0 enhanced anti-cancer activity, about 0 neutral, <0 antagonist
[17] = Complete minus Cholesterol-free, greater than 0 enhanced anti-cancer activity, about 0 neutral, below 0 antagonist
[18] = NCI-H292 cells, FDA drug library screen, cholesterol-free media without statin
[19] = complete vs cholesterol-free media, >0 enhanced anti-cancer activity, about 0 neutral, <0 antagonist
[20] = NCI-H292 cells, FDA library drug in cholesterol-free media with simvastatin 0.04 μM
[21] = NCI-H292 cells, FDA library drug in complete media
[22] = NCI-H292 cells in cholesterol-free media without statin
[23] = NCI-H292 cells, cholesterol-free media with simvastatin 0.04 μM, cell growth value in FDA drug screen
[24] = NCI-H292 cells, complete media, cell growth value in FDA drug screen
[25] = NCI-H292 cells, drug in cholesterol-free media with simvastatin 0.04 μM
[26] = NCI-H292 cells, drug in complete media
[27] = complete media vs cholesterol-free media + simvastatin (0.04 μM), >0 enhanced anti-cancer activity, about 0 neutral, <0 antagonist

CCN(CC)CCNC(=O)c1ccc(NC(C)=O)cc1 [N-Acetylprocainamide]
Cholesterol-free [1, 3]: 1.279
Complete [1, 4]: 1.656
Difference [1, 5]: 0.38
Cholesterol-free media + simvastatin (0.04 μM) [2, 6]: 0.9234
Complete Media [2, 7]: 0.8479
Difference [2, 8]: −0.08

Potassium guaiacolsulfonate (hemihydrate)
Cholesterol-free [1]: 1.74
Complete [1]: 0.9478
Difference [1]: −0.79
Cholesterol-free media + simvastatin (0.04 μM) [2]: 1.702
Complete Media [2]: 1.838
Difference [2]: 0.14

N#Cc1ccc2[nH]cc(CCCCN3CCN(c4ccc5oc(C(=O)O)cc5c4)CC3)c2c1 [Vilazodone carboxylic acid]
Difference [1, 9]: −0.19
Cholesterol-free [1, 10]: 0.9582
Complete ([1]; NCI-H292 cells, complete media): 0.7696
Cholesterol-free media + simvastatin (0.04 μM) [2, 11]: 1.218
Complete Media [2, 12]: 1.232
Difference [2, 13]: 0.01

Pasiniazid
Cholesterol-free [1, 3]: 1.164
Complete [1, 4]: 1.274
Difference [1, 5]: 0.11
Cholesterol-free media + simvastatin (0.04 μM) [2, 6]: 1.047
Complete Media [2, 7]: 1.325
Difference ([2]; complete media minus cholesterol-free media + simvastatin, […]): 0.28

CNNCc1ccc(C(=O)NC(C)C)cc1 [Procarbazine (Hydrochloride)]
Difference [1, 14]: −0.50
Complete [1, 15]: 1.119
Cholesterol-free media + simvastatin (0.04 μM) [2, 6]: 0.7556
Complete Media [2, 7]: 1.193
Difference [2, 16]: 0.44

CN(C)C(=O)N[C@H]1CC[C@H](CCN2CCN(c3cccc(Cl)c3Cl)CC2)CC1 [Cariprazine (hydrochloride)]
Difference [1, 17]: −0.14
Cholesterol-free [1, 18]: 1.158
Complete [1, 7]: 1.021
Cholesterol-free media + simvastatin (0.04 μM) [2, 6]: 1.127
Complete Media [2, 7]: 1.452
Difference [2, 16]: 0.32

CN(C)CCC=C1c2ccccc2C=Cc2ccccc21 [Cyclobenzaprine (hydrochloride)]
Cholesterol-free [1, 3]: 1.08
Complete [1, 4]: 1.26
Difference [1, 19]: 0.18
Cholesterol-free media + simvastatin (0.04 μM) [2, 6]: 1.036
Complete Media [2, 7]: 1.3
Difference [2, 16]: 0.26

CN(C)c1cc(NC(=O)CNC(C)(C)C)c(O)c2c1C[C@H]1C[C@H]3[C@H](N(C)C)C(O)=C(C(N)=O)C(=O)[C@@]3(O)C(O)=C1C2=O [Tigecycline]
Difference ([1]; Complete minus Cholesterol-free, […]): −0.13
Cholesterol-free [1, 18]: 1.231
Complete [1, 7]: 1.106
Cholesterol-free media + simvastatin (0.04 μM) [2, 20]: 1.179
Complete Media [2, 21]: 0.8929
Difference [2, 8]: −0.29

NCCCNCCSP(=O)(O)O [Amifostine]
Difference [1, 17]: −0.17
Cholesterol-free [1, 18]: 1.387
Complete [1, 7]: 1.213
Cholesterol-free media + simvastatin (0.04 μM) [2, 11]: 0.9829
Complete Media [2, 12]: 0.9429
Difference [2, 13]: −0.04

CC(C)(CO)c1cc2cc(NC(=O)C3(c4ccc5c(c4)OC(F)(F)O5)CC3)c(F)cc2n1C[C@@H](O)CO [Tezacaftor]
Difference [1, 14]: −0.63
Cholesterol-free [1, 22]: 1.488
Complete [1, 15]: 0.8597
Cholesterol-free media + simvastatin (0.04 μM) [2, 11]: 1.227
Complete Media [2, 12]: 1.187
Difference [2, 13]: −0.04

Nc1nc(=O)n([C@@H]2CS[C@H](CO)O2)cc1F [Emtricitabine]
Cholesterol-free [1, 3]: 0.9457
Complete [1, 4]: 1.235
Difference [1, 19]: 0.29
Cholesterol-free media + simvastatin (0.04 μM) [2, 23]: 1.347
Complete Media [2, 24]: 1.442
Difference [2, 16]: 0.09

CC[C@H]1OC(=O)[C@H](C)[C@@H](O[C@H]2C[C@@](C)(OC)[C@@H](O)[C@H](C)O2)[C@H](C)[C@@H](O[C@@H]2O[C@H](C)C[C@H](N(C)C)[C@H]2O)[C@](C)(O)C[C@@H](C)C(=O)[C@H](C)[C@@H](O)[C@]1(C)O [Erythromycin]
Difference [1, 14]: −0.99
Cholesterol-free [1, 22]: 1.913
Complete [1, 15]: 0.9269
Cholesterol-free media + simvastatin (0.04 μM) [2, 25]: 1.202
Complete Media [2, 26]: 0.9929
Difference [2, 27]: −0.21

CCCN1CCCC[C@H]1C(=O)Nc1c(C)cccc1C [Ropivacaine]
Difference [1, 9]: −0.20
Cholesterol-free [1, 10]: 1.098
Complete ([1]; NCI-H292 cells, complete media): 0.8949
Cholesterol-free media + simvastatin (0.04 μM) [2, 25]: 0.9386
Complete Media [2, 26]: 0.7628
Difference [2, 27]: −0.18

C[C@H]1[C@@H](O)O[C@@H]2O[C@@]3(C)CC[C@H]4[C@H](C)CC[C@@H]1[C@@]24OO3 [Dihydroartemisinin]
Difference [1, 9]: 0.05
Cholesterol-free [1, 3]: 0.5972
Complete [1, 4]: 0.6489
Cholesterol-free media + simvastatin (0.04 μM) [2, 25]: 0.9193
Complete Media [2, 26]: 0.7262
Difference [2, 27]: −0.19

CC12CCC(CC1=O)C2(C)C (centres unmarked) [Camphor]
Difference [1, 14]: −0.48
Cholesterol-free [1, 22]: 1.372
Complete [1, 15]: 0.8909
Cholesterol-free media + simvastatin (0.04 μM) [2, 6]: 1.13
Complete Media [2, 7]: 0.9969
Difference [2, 27]: −0.13

CC[N+](CC)(CC)CCOc1cccc(OCC[N+](CC)(CC)CC)c1OCC[N+](CC)(CC)CC [Gallamine Triethiodide]
Difference [1, 9]: −0.28
Cholesterol-free [1, 10]: 1.311
Complete ([1]; NCI-H292 cells, complete media): 1.029
Cholesterol-free media + simvastatin (0.04 μM) [2, 20]: 1.372
Complete Media [2, 21]: 1.027
Difference [2, 27]: −0.35

CNCCc1ccccn1 [Betahistine]
Difference [1, 17]: −0.10
Cholesterol-free [1, 18]: 1.192
Complete [1, 7]: 1.087
Cholesterol-free media + simvastatin (0.04 μM) [2, 25]: 1.266
Complete Media [2, 26]: 1.062
Difference [2, 27]: −0.20

CC1=CC(=O)c2ccccc2C1=O [Menadione]
Cholesterol-free [1, 3]: 0.7683
Complete [1, 4]: 1.342
Difference [1, 19]: 0.57
Cholesterol-free media + simvastatin (0.04 μM) [2, 11]: 1.102
Complete Media [2, 12]: 1.055
Difference [2, 13]: −0.05

CN(C)[C@@H]1C(O)=C(C(N)=O)C(=O)[C@@]2(O)C(O)=C3C(=O)c4c(O)c(NC(=O)CN5CCCC5)cc(F)c4C[C@H]3C[C@@H]12 [Eravacycline (dihydrochloride)]
Cholesterol-free [1, 3]: 0.2139
Complete [1, 4]: 0.4019
Difference [1, 5]: 0.19
Cholesterol-free media + simvastatin (0.04 μM) [2, 11]: 0.8088
Complete Media [2, 12]: 0.7999
Difference ([2]; complete media minus cholesterol-free media + simvastatin (0.04 μM), […]): −0.01

C=C1CCC2CC1C2(C)C (stereo not drawn) [β-Pinene]
Difference [1, 9]: −0.30
Cholesterol-free [1, 10]: 0.968
Complete ([1]; NCI-H292 cells, complete media): 0.6726
Cholesterol-free media + simvastatin (0.04 μM) [2, 25]: 1.724
Complete Media [2, 26]: 1.464
Difference [2, 27]: −0.26

CCc1cc2c(cc1CC)CC(NC[C@H](O)c1ccc(O)c3[nH]c(=O)ccc13)C2 [Indacaterol]
Cholesterol-free [1, 3]: 0.6776
Complete [1, 4]: 1.376
Difference [1, 19]: 0.70
Cholesterol-free media + simvastatin (0.04 μM) [2, 6]: 0.7696
Complete Media [2, 7]: 1.1
Difference [2, 16]: 0.33

CC(C)NCC(O)COc1ccc(CCOCC2CC2)cc1 (centres unmarked) [Betaxolol (hydrochloride)]
Difference [1, 9]: −0.02
Cholesterol-free [1, 3]: 0.8929
Complete [1, 4]: 0.8739
Cholesterol-free media + simvastatin (0.04 μM) [2, 23]: 1.08
Complete Media [2, 24]: 1.11
Difference [2, 16]: 0.03

CN(C)C(=O)Oc1cccc([N+](C)(C)C)c1.[Br-] [Neostigmine (Bromide)]
Cholesterol-free [1]: 1.008
Complete [1]: 0.8252
Difference [1]: −0.18
Cholesterol-free media + simvastatin (0.04 μM) [2]: 0.9188
Complete Media [2]: 1.066
Difference [2]: 0.15

CC(=O)O[C@]1(C(C)=O)CC[C@H]2[C@@H]3C=C(Cl)C4=CC(=O)CC[C@]4(C)[C@H]3CC[C@@]21C [Chlormadinone acetate]
Difference [1, 14]: −0.74
Cholesterol-free [1, 22]: 1.695
Complete [1, 15]: 0.9505
Cholesterol-free media + simvastatin (0.04 μM) [2, 11]: 1.079
Complete Media [2, 12]: 1.06
Difference [2, 13]: −0.02

Cc1cc(C)c(NC(=O)CN(CC(=O)O)CC(=O)O)c(C)c1Br [Mebrofenin]
Difference [1, 17]: −0.13
Cholesterol-free [1, 18]: 1.088
Complete [1, 7]: 0.9614
Cholesterol-free media + simvastatin (0.04 μM) [2, 20]: 1.2
Complete Media [2, 21]: 0.8726
Difference [2, 27]: −0.33

Nc1nc2c(ncn2CCC(CO)CO)c(=O)[nH]1 [Penciclovir]
Cholesterol-free [1, 10]: 0.9605
Complete ([1]; NCI-H292 cells, complete media): 0.6394
Difference ([1]; complete vs cholesterol-free media, greater than 0 enhanced anti-cancer activity, about 0 neutral, below 0 antagonists): −0.32
Cholesterol-free media + simvastatin (0.04 μM) [2, 11]: 1.351
Complete Media [2, 12]: 1.353
Difference [2, 13]: 0.00

N[C@@H]1C[C@H]1c1ccccc1.N[C@@H]1C[C@H]1c1ccccc1.O=S(=O)(O)O [Tranylcypromine (hemisulfate)]
Cholesterol-free [1]: 1.175
Complete [1]: 0.8249
Difference [1]: −0.35
Cholesterol-free media + simvastatin (0.04 μM) [2]: 0.8773
Complete Media [2]: 0.7026
Difference [2]: −0.17

CC(C)(C)c1nc(-c2cccc(NS(=O)(=O)c3c(F)cccc3F)c2F)c(-c2ccnc(N)n2)s1 [Dabrafenib]
Difference [1, 17]: −0.18
Cholesterol-free [1, 18]: 0.7255
Complete [1, 7]: 0.5433
Cholesterol-free media + simvastatin (0.04 μM) [2, 11]: 0.7299
Complete Media [2, 12]: 0.7037
Difference [2, 13]: −0.03
